Laboratory results published in PubChem BioAssay AID248 (DTP/NCI, 2004).
Several values for one entry are separate records, joined by “and”; a condition that tells them apart may be missing. Equal entries are not always repeated. Inconclusive results and toxic doses are left out. No stated cut-off is given here; in the data, active means T/C of 150% or more; inactive means T/C below 125%.

Tested on: L1210 leukemia ip in BDF1 mice, survival T/C
Assay: NCI In Vivo Anticancer Drug Screen. Data for tumor model L1210 Leukemia (intraperitoneal) in B6D2F1 (BDF1) mice
Conditions: endpoint: mean survival time, higher = longer survival
Outline: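 Antitumor effect is assessed in tumor-bearing animals. Survival in the compound arm is compared with a vehicle-dosed control arm and expressed as their quotient.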

[1] = dose: 50.0 mg/kg/injection, schedule: Q01DX009 (ip), vehicle: saline with Tween-80
[2] = dose: 100.0 mg/kg/injection, schedule: Q01DX009 (ip), vehicle: saline with Tween-80
[3] = dose: 100.0 mg/kg/injection, schedule: Q04DX003 (ip), vehicle: Klucel (hydroxypropylcellulose) (HPC)
[4] = dose: 200.0 mg/kg/injection, schedule: Q04DX003 (ip), vehicle: Klucel (hydroxypropylcellulose) (HPC)
[5] = dose: 400.0 mg/kg/injection, schedule: Q04DX003 (ip), vehicle: Klucel (hydroxypropylcellulose) (HPC)
[6] = dose: 100.0 mg/kg/injection, schedule: Q01DX001 (ip), vehicle: saline
[7] = dose: 200.0 mg/kg/injection, schedule: Q01DX001 (ip), vehicle: saline
[8] = dose: 400.0 mg/kg/injection, schedule: Q01DX001 (ip), vehicle: saline
[9] = dose: 25.0 mg/kg/injection, schedule: Q01DX009 (ip), vehicle: Klucel (hydroxypropylcellulose) (HPC)
[10] = dose: 50.0 mg/kg/injection, schedule: Q01DX009 (ip), vehicle: Klucel (hydroxypropylcellulose) (HPC)
[11] = dose: 100.0 mg/kg/injection, schedule: Q01DX009 (ip), vehicle: Klucel (hydroxypropylcellulose) (HPC)
[12] = dose: 200.0 mg/kg/injection, schedule: Q01DX009 (ip), vehicle: Klucel (hydroxypropylcellulose) (HPC)
[13] = dose: 200.0 mg/kg/injection, schedule: Q01DX009 (ip), vehicle: saline with Tween-80
[14] = dose: 100.0 mg/kg/injection, schedule: Q01DX001 (ip), vehicle: saline with Tween-80
[15] = dose: 200.0 mg/kg/injection, schedule: Q01DX001 (ip), vehicle: saline with Tween-80

Measured: T/C

CCOC(=O)c1cnc(SC)nc1N(C)C
inactive: dose: 100.0 mg/kg/injection, schedule: Q04DX003 (ip), vehicle: saline with Tween-80 96 % of control | dose: 200.0 mg/kg/injection, schedule: Q04DX003 (ip), vehicle: saline with Tween-80 96 % of control

CCC1(O)C(=O)OCc2c1ccn(C)c2=O (stereo not given)
inactive: dose: 18.7 mg/kg/injection, schedule: Q01DX001 (ip), vehicle: saline 113 % of control | dose: 37.5 mg/kg/injection, schedule: Q01DX001 (ip), vehicle: saline 105 % of control | dose: 75.0 mg/kg/injection, schedule: Q01DX001 (ip), vehicle: saline 102 % of control | dose: 150.0 mg/kg/injection, schedule: Q01DX001 (ip), vehicle: saline 102 % of control

Nc1cccc(Cl)c1
inactive: dose: 25.0 mg/kg/injection, schedule: Q01DX009 (ip), vehicle: saline with Tween-80 92 % of control | [1] 92 % of control | [2] 95 % of control | [3] 95 % of control | [4] 90 % of control

NC(N)=NC(CC(=O)O)C(=O)O (stereo not given)
inactive: dose: 100.0 mg/kg/injection, schedule: Q01DX Z (ip), vehicle: methylcellulose (MC) 92 % of control | dose: 200.0 mg/kg/injection, schedule: Q01DX Z (ip), vehicle: methylcellulose (MC) 92 % of control

NC1(C(=O)O)Cc2ccccc2B(O)OC1=O (stereo not given)
inactive: [3] 98 % of control | [4] 96 % of control | [5] 106 % of control

O=C(/C=C(\S)c1ccccc1)c1ccccc1
inactive: dose: 50.0 mg/kg/injection, schedule: Q01DX001 (ip), vehicle: saline 101 % of control | [6] 104 % of control | [7] 98 % of control | [8] 101 % of control

C[Si](C)(C)c1ccc(-c2ccccc2)cc1
inactive: dose: 25.6 mg/kg/injection, schedule: Q04DX002 (ip), vehicle: saline with Tween-80 90 % of control | dose: 64.0 mg/kg/injection, schedule: Q04DX002 (ip), vehicle: saline with Tween-80 90 % of control | dose: 160.0 mg/kg/injection, schedule: Q04DX002 (ip), vehicle: saline with Tween-80 97 % of control | dose: 400.0 mg/kg/injection, schedule: Q04DX002 (ip), vehicle: saline with Tween-80 101 % of control

CCCCCCCCCCC(O)CN1CCN(c2ccc(C)cc2)CC1 (stereo not given)
inactive: dose: 12.5 mg/kg/injection, schedule: Q01DX009 (ip), vehicle: Klucel (hydroxypropylcellulose) (HPC) 90 % of control | [9] 90 % of control | [10] 89 % of control | [11] 94 % of control | [12] 101 % of control

CN(C)S(=O)(=O)/C=C/c1ccccc1
inactive: [4] 95 % of control | [5] 109 % of control

CC(=O)OC1CCCC2=C(C)C(=O)CCC21C (stereo not given)
inactive: [1] 100 % of control | [2] 118 % of control | [13] 94 % of control

O=C1c2ccccc2C(Br)(c2ccccc2)C1Br (stereo not given)
inactive: dose: 12.5 mg/kg/injection, schedule: Q01DX009 (ip), vehicle: other 93 % of control | dose: 25.0 mg/kg/injection, schedule: Q01DX009 (ip), vehicle: other 89 % of control

COc1ccc(C(CC(=O)c2ccccc2)CC(=O)c2ccccc2)cc1
inactive: dose: 400.0 mg/kg/injection, schedule: Q04DX003 (ip), vehicle: saline with Tween-80 87 % of control

CC(C)C[C@H]1C(=O)N2CCC[C@H]2[C@]2(O)O[C@](NC(=O)[C@@H]3C=C4c5cccc6[nH]c(Br)c(c56)C[C@H]4N(C)C3)(C(C)C)C(=O)N12
inactive: [2] 105 % of control | [13] 106 % of control

CCCCOC(=S)SCC(=O)O
inactive: dose: 100.0 mg/kg/injection, schedule: Q04DX002 (ip), vehicle: other 103 % of control | dose: 200.0 mg/kg/injection, schedule: Q04DX002 (ip), vehicle: other 106 % of control | dose: 400.0 mg/kg/injection, schedule: Q04DX002 (ip), vehicle: other 94 % of control

CC=C1C(C(=O)O)C1C(=O)O (stereo not given)
inactive: [9] 93 % of control | [10] 93 % of control | [11] 95 % of control and 96 % of control | dose: 100.0 mg/kg/injection, schedule: Q04DX002 (ip), vehicle: saline 115 % of control | dose: 200.0 mg/kg/injection, schedule: Q04DX002 (ip), vehicle: saline 107 % of control | dose: 400.0 mg/kg/injection, schedule: Q04DX002 (ip), vehicle: saline 113 % of control

Nc1nc(=S)c2nc(CNc3ccc(C(=O)NC(CCC(=O)O)C(=O)O)cc3)nnc2[nH]1 (stereo not given)
inactive: [14] 103 % of control | [15] 105 % of control

Cc1ncc(C#N)n1C(C)c1ccccc1 (stereo not given)
inactive: dose: 100.0 mg/kg/injection, schedule: Q01DX001 (ip), vehicle: Klucel (hydroxypropylcellulose) (HPC) 103 % of control | dose: 200.0 mg/kg/injection, schedule: Q01DX001 (ip), vehicle: Klucel (hydroxypropylcellulose) (HPC) 100 % of control

CSc1cc(=O)n(C2OC(CO)C(O)C2O)c(=O)[nH]1 (stereo not given)
inactive: [6] 101 % of control | dose: 100.0 mg/kg/injection, schedule: Q01DX005 (ip), vehicle: saline 101 % of control | [7] 118 % of control | dose: 200.0 mg/kg/injection, schedule: Q01DX005 (ip), vehicle: saline 97 % of control | [8] 104 % of control

COc1ccc(/C=N\NC(=O)c2ccc(Cl)c(Cl)c2)cc1OC
inactive: [1] 117 % of control | [2] 93 % of control | [13] 90 % of control

OC(c1ccccc1)c1cccc(Br)c1 (stereo not given)
inactive: dose: 100.0 mg/kg/injection, schedule: Q01DX009 (ip), vehicle: acetone 104 % of control | dose: 100.0 mg/kg/injection, schedule: Q04DX003 (ip), vehicle: saline 96 % of control | dose: 200.0 mg/kg/injection, schedule: Q01DX009 (ip), vehicle: acetone 107 % of control | dose: 200.0 mg/kg/injection, schedule: Q04DX003 (ip), vehicle: saline 105 % of control | dose: 400.0 mg/kg/injection, schedule: Q01DX009 (ip), vehicle: acetone 100 % of control | dose: 400.0 mg/kg/injection, schedule: Q04DX003 (ip), vehicle: saline 89 % of control

O=C(O)CN(Cc1ccccc1)Cc1ccccc1
inactive: [3] 95 % of control | [4] 98 % of control | [5] 98 % of control

CC1(C)N([O-])[N+](=O)C1(C)C
inactive: [14] 97 % of control | [15] 101 % of control | dose: 400.0 mg/kg/injection, schedule: Q01DX001 (ip), vehicle: saline with Tween-80 101 % of control

O=C(/C=C/c1ccccc1)c1ccc2c(c1)OCO2
inactive: dose: 100.0 mg/kg/injection, schedule: Q04DX003 (ip), vehicle: water 98 % of control | dose: 200.0 mg/kg/injection, schedule: Q04DX003 (ip), vehicle: water 96 % of control | dose: 400.0 mg/kg/injection, schedule: Q04DX003 (ip), vehicle: water 94 % of control

Nc1nnnc2c1cnn2C1OC(CO)C(O)C1O (stereo not given)
inactive: dose: 100.0 mg/kg/injection, schedule: Q01DX001 (ip), vehicle: other 97 % of control | dose: 200.0 mg/kg/injection, schedule: Q01DX001 (ip), vehicle: other 101 % of control | dose: 400.0 mg/kg/injection, schedule: Q01DX001 (ip), vehicle: other 101 % of control

c1csc(Cc2cccs2)c1
inactive: dose: 50.0 mg/kg/injection, schedule: Q01DX009 (ip), vehicle: other 112 % of control | dose: 100.0 mg/kg/injection, schedule: Q01DX009 (ip), vehicle: other 112 % of control | dose: 200.0 mg/kg/injection, schedule: Q01DX009 (ip), vehicle: other 116 % of control

O=C(O)/C=C/C(=O)Nc1ccccc1NC(=O)/C=C/C(=O)O
inactive: [11] 101 % of control | [12] 92 % of control | dose: 400.0 mg/kg/injection, schedule: Q01DX009 (ip), vehicle: Klucel (hydroxypropylcellulose) (HPC) 97 % of control

CCOC=NC1=C(C#N)CN(Cc2ccccc2)CC1
inactive: dose: 100.0 mg/kg/injection, schedule: Q04DX002 (ip), vehicle: Klucel (hydroxypropylcellulose) (HPC) 93 % of control | dose: 200.0 mg/kg/injection, schedule: Q04DX002 (ip), vehicle: Klucel (hydroxypropylcellulose) (HPC) 93 % of control | dose: 400.0 mg/kg/injection, schedule: Q04DX002 (ip), vehicle: Klucel (hydroxypropylcellulose) (HPC) 90 % of control

C1CC2CCCC3C4CCCC5CCCC(C(C1)C23)C54 (stereo not given)
inactive: [6] 94 % of control | [7] 100 % of control | [8] 97 % of control
